The test system of one data set is LPS. In words: Plasma LPS level, 4 weeks. The format is in vivo, mice. The settings on record: group ES: 2.0% v/v ethanol diet + 2.5 mg sesaminol per day oral, vs group E, level similar to groups C and S. The protocol: The plasma LPS concentration was measured with a limulus amebocyte lysate (LAL) assay.
Next, in order to verify the longer-term effect of oral administration of sesaminol on ethanol-induced intestinal tight junction (TJ) dysfunction and leaky gut, histological analysis of colonic epithelial TJ proteins (ZO-1, Occludin, and Claudin-1) and analysis of the plasma LPS level were performed using the mice in each group (groups C, S, E, and ES) described in Example 7. Histological analysis was performed by immunofluorescence staining with anti-ZO-1, anti-Occludin, and anti-Claudin-1 antibodies, followed by observation under a fluorescence microscope. The Plasma LPS level was measured according to the method described in Example 6.

For a further data set, the system named is occludin. Briefly: Western blotting of occludin in colon tissue. The format is in vivo, mice. The settings on record: group ES: 2.0% v/v ethanol diet + 2.5 mg sesaminol per day oral, 2 weeks, vs group E; lower than group C. The source says:
Acetaldehyde, which accumulates during ethanol metabolism, is known to disrupt intestinal tight junctions (TJs) via dissociation of colonic epithelium TJ proteins (ZO-1, occludin, and claudin-1) from the cytoskeleton. […] Therefore, whether oral administration of sesaminol would affect ethanol-induced intestinal barrier dysfunction was examined by analyzing the expression levels of colonic epithelial TJ proteins and the plasma LPS level in the mice in the four groups (groups C, S, E, and ES).
WB was performed in the same manner as in Example 4 above. The following primary antibodies were used. • Anti-mouse zonula occludens-1 protein (ZO-1) rabbit polyclonal antibody • Anti-mouse occludin rabbit polyclonal antibody • Anti-mouse claudin-1 rabbit polyclonal antibody
A general note: Immunoblotting shows a protein as a band on a membrane.

The nature of data set [1]: AST and ALT activities and TG concentration in the plasma, 4 weeks. It is filed as in vivo, mice. The settings on record: mean ±SD. As for the experimental part: The liver function and plasma lipid level in the mice in each group were examined by measuring the percentage of the liver weight relative to the body weight, the triglyceride (TG) concentration in the liver, the aspartate aminotransferase (AST) activity in the plasma, the alanine aminotransferase (ALT) activity in the plasma, and the TG concentration in the plasma of the mice in each group.
The AST and ALT activities and TG concentration in the plasma were measured according to the product protocol using dedicated reagent kits for each test item (L-Type Wako AST, L-Type Wako ALT, and L-Type Wako TG M, produced by FUJIFILM Wako Pure Chemical Corporation).

A further data set deals with fecal mucin. In words: Amount of fecal mucin of mice. The format is in vivo. The settings on record: group ES: 2.0% v/v ethanol diet + 2.5 mg sesaminol per day oral, 4 weeks, vs group E; level similar to group C. The source says: The effect of oral administration of sesaminol on the amount of mucus secretion in mouse colon was examined by measuring the amount of fecal mucin of the mice in each group (groups C, E, S, and ES) and the amount of secretory immunoglobulin A (sIgA) in the colon tissue of the mice.
Fecal samples were each freeze-dried overnight in a freeze-drying equipment and then formed into a powder. After weighing each of the dried, powdered feces, fecal mucin was quantified according to the product protocol of a reagent kit for measuring fecal mucin (Fecal Mucin Assay Kit, produced by Cosmo Bio Co., Ltd.), and converted to the mucin amount (ug) per amount of dry feces (g). The results were evaluated.

For another data set, the system named is CYP2E1. Briefly: Western blotting of CYP2E1 in colon tissue. The format is in vivo, mice. The settings on record: group ES: 2.0% v/v ethanol diet + 2.5 mg sesaminol per day oral, 2 weeks, vs group E. The source says:
Chronic consumption of an excessive amount of ethanol has been reported to increase CYP2E1 and iNOS levels and cause ethanol-induced oxidative stress in the liver and other tissues. The nuclear factor erythroid 2-related factor 2/heme oxygenase-1 (Nrf2/HO-1) system has also been reported to be widely involved in the protection of cells from oxidative damage. Therefore, the expression levels of these proteins (CYP2E1, iNOS, and HO-1) in mouse colon tissue in the four groups (groups C, S, E, and ES) were examined by western blotting (WB).
A colon tissue sample (100 mg) was homogenized in 1 mL of an M-PER mammalian protein extraction reagent (Pierce) containing a diluent of a protease inhibitor cocktail (Nacalai Tesque, Inc.), and the resulting homogenate was centrifuged at 20,000× g at 4° C. for 15 minutes. The protein concentration of the supernatant was measured with a protein assay reagent (Bio-Rad Laboratories, Inc.), and equal amounts of proteins were subjected to SDS-PAGE. Electrophoresed proteins in the gel were transferred to a PVDF membrane, and the membrane was immersed in a blocking reagent (room temperature, overnight). The primary antibody (rabbit polyclonal antibody) was then reacted. […] The band intensities were quantified with ImageJ.

Another data set has as its system IL-6. Briefly: IL-6 expression in colon tissue (qRT-PCR, ELISA). The settings on record: group ES: 2.0% v/v ethanol diet + 2.5 mg sesaminol per day oral, 2 weeks, vs group E; higher than group C. The format is in vivo, mice. The source says: It has been reported that chronic consumption of an excessive amount of ethanol can induce inflammation associated with tumor formation in colon tissue. Therefore, in order to verify whether oral administration of sesaminol has a preventive effect on ethanol-induced colitis, the expression levels of inflammatory cytokines (TNF-α and IL-6) and chemokine (MCP-1) in the large intestinal lamina propria of the mice in the four groups (groups C, S, E, and ES) were examined by qRT-PCR and ELISA. The NF-κB activity in the mice in the four groups was also examined. NF-κB is a transcription factor that is involved in expression of genes regulating inflammation and is activated by exposure of immune cells to pro-inflammatory factors.
Total RNA was extracted from colon tissue samples. […]
A colon tissue sample (100 mg) was homogenized in 1 mL of an M-PER mammalian protein extraction reagent (Pierce) containing a diluent of a protease inhibitor cocktail (Nacalai Tesque, Inc.), and the resulting homogenate was centrifuged at 20,000× g at 4° C. for 15 minutes. The protein concentration of the supernatant was measured with a protein assay reagent (Bio-Rad Laboratories, Inc.), and equal amounts of proteins were used for analysis of the expression levels of TNF-α, IL-6, and MCP-1 by ELISA.

[2] abbreviates: EtOH (2.0% v/v) + Sesaminol group ES.

These results are taken from patent US20240408053A1, “ENTERITIS-SUPPRESSING COMPOSITION” (KOBE GAKUIN EDUCATIONAL FOUNDATION, priority 2021, published 2024).

Marks after values point to notes of the source that are not given here.

On to `Oc1cc2c(cc1C1OCC3C(c4ccc5c(c4)OCO5)OCC13)OCO2` (centres unmarked) [Sesaminol], for which the “plasma LPS concentration” value in the data set on LPS is “significant and considerable decrease in the plasma LPS concentration compared with group E”. Also, the “expression level of occludin” value with occludin is given as “significantly higher than those in group E”. Further, in data set [1] (setting [2]), the “Plasma ALT” value is 45.8 ± 6.6*^, †, ### U/L; the “Plasma AST” value was found to be 43.5 ± 7.6 U/L; the “Plasma TG” value was 0.65 ± 0.13 mmol/L. For the same molecule, in data set [1] (Sesaminol (2.5 mg/d) group S), the “Plasma ALT” value is 33.3 ± 5.7 U/L, the “Plasma AST” value was 41.3 ± 6.8 U/L and the “Plasma TG” value is 0.53 ± 0.14 mmol/L. Also, in the data set on fecal mucin, the “amount of fecal mucin” value is given as “significantly higher than that in group E”. For the same molecule, the CYP2E1 expression level entry with CYP2E1 was “significantly lower than that in group E”. Besides, the “expression level of IL-6 (mRNA by qRT-PCR, protein by ELISA)” value with IL-6 is “significantly lower than those in group E”.
